Data as given in patent US4113850A, “Composition for the diagnostic visualization of neoplastic tissues” (Solco Basel AG, priority 1974, dated 1978).
Values joined by “and” are separate entries in the source; they are usually repeats but may differ in a detail not shown here. Identical values can stand only once. Like-named read-outs stand apart in the source and are kept apart here.

Tests used:
[1] = Stability of the complexes; assay type: physicochemical; conditions: in solution
[2] = cited from earlier work; for Ray dose for the person examined: radiopharmaceuticals used up to now
[3] = system: neoplastic tissues (tumors and metastases); conditions: radiopharmaceuticals used up to now; cited from earlier work
[4] = system: brain tumor; conditions: cited from earlier work
[5] = in vivo, cited from earlier work
[6] = system: brain tumor; conditions: literature sources 1-2 of Table 2, cited from earlier work

With ^111 indium-citrate complex [Example 7] the Stability of complex [1] was “stable”.

For “tin-technetium-isocitrate complex [Example 1]”, the Stability of complex [1] was “stable”.

For `O=C([O-])CC(O)(CC(=O)[O-])C(=O)[O-].[67Ga+3]` [^67 Gallium citrate], the “Ray dose for the person examined” value [2] is given as “high ray dose” and the Tumor affinity [3] is given as “low and uncertain tumor affinity”.

In the case of `COC([CH2][197Hg+])CNC(N)=O.[Cl-]` (stereo not drawn) [197Hg-Chlormerodrin, ^197 Hg-chlormerodrin], the “Human external tumor brain quotient (in vivo)” value ([4]; literature sources 1-6 of Table 1) is listed as 1.2 - 8.7 : 1 and 1.2 - 3.1 : 1, the “Ray dose of the critical organs: Kidney” value ([2]; Kidney, hitherto used substances) is listed as 4370 - 19400 mrad/mCurie and the “Ray dose for the person examined” value [2] is listed as “high ray dose”. The Tumor affinity [3] was “low and uncertain tumor affinity”.

In the case of `O=[75Se]([O-])[O-].[Na+].[Na+]` [^75 Se-sodium selenite], the “Ray dose for the person examined” value [2] is given as “high ray dose” and the Tumor affinity [3] is given as “low and uncertain tumor affinity”.

In the case of `[O]=[99Tc](=[O])(=[O])[O-]` [Example 99mTcO4, ^99m Tc-pertechnetate], the “Human external tumor brain quotient (in vivo)” value ([4]; literature sources 1-6 of Table 1, listed as 99mTcO.sbsb.4) is listed as 1.7 : 1 and 1.3 : 1 and 1.2 - 2.5 : 1, the “Ray dose of the critical organs: Blood” value ([2]; Blood, hitherto used substances) is listed as 17 - 47 mrad/mCurie and the “Ray dose of the critical organs: Colon” value ([2]; Colon, hitherto used substances) is listed as 150 - 290 mrad/mCurie. The “Ray dose of the critical organs: Stomach” value ([2]; Stomach, hitherto used substances) was 40 - 320 mrad/mCurie, the “Ray dose of the critical organs: Thyroid” value ([2]; Thyroid, hitherto used substances) was 100 - 270 mrad/mCurie and the Concentration in organs ([5]; listed as 99m Tc-pertechnetate) was “particularly high concentrations occur in the thyroid but also in the plexus chorioideus (brain), in the salivary glands and in the gastric mucosa”. The Concentration in organs ([5]; listed as pertechnetate) was “concentrates above all in the thyroid”, the “Human internal tumor brain quotient (after autopsy or on an operation preparation)” value [6] was 1.8 - 5.3 : 1 and the “Human internal tumor brain quotient (after autopsy or on an operation preparation)” value ([6]; listed as 99mTcO) was 0 - 4.3 : 1.

In the case of `COC(CNC(N)=O)[CH2][203Hg][Cl]` (stereo not drawn) [^203 Hg-chlormerodrin], the “Ray dose for the person examined” value [2] is given as “high ray dose” and the Tumor affinity [3] is given as “low and uncertain tumor affinity”.
